Measurements as given in PubChem BioAssay (NCI).
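Protocol summary: plate cells (96-well), add compound at 5 concentrations, incubate 48 h, interpolate endpoints linearly. The concentration for 50% growth inhibition is given as GI50. TGI marks complete inhibition of growth.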

Columns and labels:
Assay in all cases: DTP human tumour cell line panel, 48 h
[1] = tested on: DMS 114 small cell lung
[2] = tested on: DMS 273 small cell lung
[3] = tested on: XF 498 CNS
[4] = tested on: LXFL 529 NSCLC
[5] = tested on: MDA-N
[6] = tested on: HOP-18 NSCLC
[7] = tested on: M19-MEL melanoma
[8] = tested on: RXF-631 renal
[9] = tested on: KM20L2 colon

Row | SMILES | TGI [1] [µM] | TGI [2] [µM] | TGI [3] [µM] | TGI [4] [µM] | TGI [5] [µM] | TGI [6] [µM] | TGI [7] [µM] | TGI [8] [µM] | TGI [9] [µM] | also measured
1 | CN(C)CCNc1nc(-c2cccs2)cc(-c2cccs2)n1 | 33.6 | 24.4 | 12.1 | 28.1 | – | – | – | – | – | –
2 | NS(=O)(=O)c1ccc(NC(=O)Nc2ccccc2F)cc1 | – | – | – | – | > 100 | – | – | – | – | –
3 | COC(=O)Cc1nc2ccccc2o1 | > 100 | > 100 | > 100 | > 100 | – | > 100 | > 100 | > 100 | 46.4 | –
4 | N#Cc1c2c(c(-c3cccs3)n(C3OC(CO)C(O)C(O)C3O)c1=S)CCc1ccccc1-2 (centres undefined) | – | – | – | – | > 100 | – | – | – | – | –
5 | C[N+](C)([O-])CCCNc1ccnc2cccc([N+](=O)[O-])c12 | – | – | – | – | > 100 | – | – | – | – | –
6 | COc1cc([C@@H]2c3cc4c(cc3C[C@H]3COC(=O)[C@@H]32)OCO4)cc2c1OCO2 | – | – | – | – | < 0.01 | – | – | – | – | –
7 | CCOC(=O)NC(=O)c1c[nH]c(=O)[nH]c1=O | > 100 | > 100 | > 100 | > 100 | – | > 100 | > 100 | > 100 | > 100 | –
8 | Cc1ccc(S(=O)OC23CC4CC(CC(C4)C2)C3)cc1 (centres undefined) | > 100 | > 100 | > 100 | > 100 | – | > 100 | > 100 | > 100 | > 100 | –
9 | O=C(c1ccccc1)C1C(C(=O)c2ccccc2)C(c2ccccc2)N(c2ccccc2)C1c1ccccc1 (centres undefined) | – | – | – | – | > 100 | – | – | – | – | –
10 | COc1ccc(C(=O)O/N=C2/CCC/C2=C\c2ccccc2)cc1 | > 100 | > 100 | > 100 | > 100 | – | > 100 | > 100 | > 100 | > 100 | –
11 | CN(C)CC1CCCC/C1=N/OC(=O)c1ccc(Cl)c(Cl)c1 (centres undefined) | > 100 | > 100 | – | > 100 | – | > 100 | > 100 | > 100 | > 100 | –
12 | OCC(O)C(OC1OC(CO)C(O)C(O)C1O)c1nn(-c2ccccc2)c2nc3cc(Cl)ccc3nc12 (centres undefined) | > 100 | – | > 100 | > 100 | – | – | > 100 | – | > 100 | –
13 | COc1ccc(C2=NOP(c3ccccc3)(c3ccccc3)(c3ccccc3)C2)cc1 | 26.2 | > 47.6 | 49.7 | > 56.7 | – | > 100 | 57.7 | > 100 | > 76.2 | –
14 | Cc1ccc(NC(=O)CCC(=O)C(C#N)c2ccccc2)cc1C (centres undefined) | > 100 | > 100 | > 100 | > 100 | – | > 100 | – | > 100 | > 100 | –
15 | C[N+](C)(C)CC1CCCC/C1=N\O (centres undefined) | > 100 | > 100 | – | > 100 | – | > 100 | – | > 100 | > 100 | –
16 | O=C(/C(=C/c1ccccc1)c1ccccc1)N1c2ccccc2CC1c1c[nH]c2ccccc12 (centres undefined) | > 100 | > 100 | 8.95 | > 100 | – | – | > 100 | – | > 100 | –
17 | C#CCN(C)C(=O)N(CC#C)N=O | > 100 | > 100 | – | > 100 | – | > 100 | > 100 | > 100 | > 100 | –
18 | O=C1c2ccccc2-c2c1c1ccccc1c(=O)n2-c1ccccc1 | – | – | – | – | > 100 | – | – | – | – | –
19 | Nc1c(-c2nc3ccccc3[nH]2)sc(=S)n1-c1ccc(Cl)cc1 | 42 | 39.8 | 52.4 | – | – | 38.6 | 84.2 | – | – | –
20 | Cc1cc(O)cc2c1c(=O)c1ccccc1n2C | – | – | – | – | > 100 | – | – | – | – | –

Row | SMILES | TGI [1] [µM] | TGI [2] [µM] | TGI [3] [µM] | TGI [4] [µM] | TGI [5] [µM] | TGI [6] [µM] | TGI [7] [µM] | TGI [8] [µM] | TGI [9] [µM] | also measured
21 | COc1ccc2nc3cccc(C(=O)NCCN(C)C)c3nc2c1 | 3.45 | > 100 | 0.696 | – | – | > 21.8 | 3.5 | > 100 | 6.46 | –
22 | COc1cc(C2c3cc4c(cc3[C@@H](Nc3ccc(N)cc3)C3COC(=O)[C@H]23)OCO4)cc(OC)c1O (some centres undefined) | 8.77 | 5.39 | 13.6 | 31 | 18.4 | 40.4 | 23.7 | – | 21.4 | GI50 [1]: 0.911 µM; GI50 [3]: 0.716 µM; GI50 [6]: 0.944 µM; GI50 [7]: 0.99 µM
23 | Nc1nc(N)c(-c2ccccc2)c(CCC(=O)Nc2ccc(Cl)cc2)n1 | – | > 100 | – | > 100 | – | > 100 | > 100 | – | > 100 | –
24 | O=C(Nc1cccc(C(F)(F)F)c1)c1cc(Br)cc(Br)c1O | – | – | – | – | > 10 | – | – | – | – | –
25 | CCOC(=O)/N=c1/nc(N(C)C)ss1 | > 100 | > 100 | > 100 | > 100 | – | > 100 | – | > 100 | > 100 | –
26 | NCP(=O)(O)OCC(=O)O | > 100 | > 100 | > 100 | > 100 | – | > 100 | – | – | – | –
27 | NS(=O)(=O)c1ccc(NC(=O)COC(=O)c2cccc3c(=O)c4ccccc4[nH]c23)cc1 | 52.3 | > 95.1 | – | 20.9 | – | 58.9 | > 100 | > 100 | > 100 | –
28 | Cc1ncc([N+](=O)[O-])n1CCNC(=O)CCCCCn1ccnc1[N+](=O)[O-] | – | – | – | – | > 100 | – | – | – | – | –
29 | COc1ccc(/C=N/N=C(\[O-])c2ccncc2)cc1F.COc1ccc(/C=N\N=C(/[O-])c2ccncc2)cc1F.[Cu+2] | – | – | – | – | > 100 | – | – | – | – | GI50 [5]: 32.7 µM
30 | Cc1cc(O)c(C(c2ccncc2)c2c(O)cc(C)[nH]c2=O)c(=O)[nH]1 | – | – | – | – | > 100 | – | – | – | – | –
31 | COC(=O)C1CC(C(=O)OC)c2nc3cc(C)c(C)cc3nc21 (centres undefined) | > 100 | > 100 | > 100 | > 100 | – | > 100 | > 100 | > 100 | > 100 | –
32 | Cn1cc(NC(=O)c2cc(NC(=O)CCCCCCC(=O)Nc3cc(C(=O)Nc4cc(C(=O)NCCC(=N)N)n(C)c4)n(C)c3)cn2C)cc1C(=O)NCCC(=N)N | 5.44 | 12.7 | 83 | 38.4 | – | > 100 | 8.89 | – | > 100 | –
33 | COc1ccc2c(c1)OCCC1=C2SCC2(C)CCN=C12 (centres undefined) | > 100 | > 100 | > 100 | > 100 | – | > 100 | – | – | > 100 | –
34 | CC1=C(C(=O)Nc2ccccc2)C(c2ccc(C(C)C)cc2)C(C(=O)Nc2ccccc2)=C(C)N1 | 47.5 | – | 27 | > 67.7 | – | 49.3 | 35.6 | > 85.1 | 31.7 | –
35 | Nc1ccc(C(=O)N/C(=C\c2cccc([N+](=O)[O-])c2)c2nc3c4c(ccc3[nH]2)C(=O)c2ccccc2C4=O)cc1 | > 100 | > 100 | > 100 | > 100 | – | > 100 | > 100 | > 100 | > 100 | –
36 | Cn1ccnc1C[N-]Cc1nccn1C.O=[N+]([O-])[O-].O=[N+]([O-])[O-].[Cu+2] | > 100 | > 100 | – | > 100 | – | > 100 | – | – | > 100 | GI50 [1]: > 100 µM; GI50 [2]: 73.8 µM; GI50 [6]: > 100 µM; GI50 [4]: > 100 µM; GI50 [9]: > 100 µM
37 | C1C[OH+]CC[OH+]CC[OH+]CC[OH+]CC[OH+]CC[OH+]1.[Cl-].[Nb+5] | – | – | – | – | – | – | – | – | > 100 | GI50 [9]: > 100 µM
38 | COc1ccc(NC(=O)/C=C(C)/C=C/C=C(C)\C=C\C2=C(C)CCCC2(C)C)cc1 | – | – | – | – | > 100 | – | – | – | – | GI50 [5]: 55.3 µM
39 | N=C(N)SCCc1ccccn1 | – | – | – | – | > 100 | – | – | – | – | –
40 | CC(C)(C)OC(=O)N1N=NC2C3OC(CC3=O)C21 (centres undefined) | > 100 | > 100 | – | > 100 | – | > 100 | – | > 100 | > 100 | –
